ChEMBL document CHEMBL2069236, “Synthesis and biological evaluation of novel N-acyl substituted quinolin-2(1H)-one derivatives as potential antimicrobial agents” (2012)
≈ marks a conversion by molar mass, not a printed value.

Experiments:
Format in all cases: functional
Candida = assay: Antifungal activity against Candida mycoderma by disc diffusion method
Candida albicans = assay: Antifungal activity against Candida albicans ATCC 76615 by disc diffusion method
Staphylococcus aureus [1] = assay: Antibacterial activity against Staphylococcus aureus ATCC 25923 by disc diffusion method
Bacillus subtilis = assay: Antibacterial activity against Bacillus subtilis ATCC 6633 by disc diffusion method
Bacillus = assay: Antibacterial activity against Bacillus proteus by disc diffusion method
Staphylococcus aureus [2] = assay: Antibacterial activity against methicillin-resistant Staphylococcus aureus N 315 by disc diffusion method
Escherichia coli = assay: Antibacterial activity against Escherichia coli JM 109 by disc diffusion method
Staphylococcus aureus [3] = assay: Ratio of streptomycin MIC to compound MIC for methicillin-resistant Staphylococcus aureus N 315

SMILES	MIC (Candida) [mg/L]	MIC (Candida albicans) [mg/L]	MIC (Staphylococcus aureus [1]) [mg/L]	MIC (Bacillus subtilis) [mg/L]	MIC (Bacillus) [mg/L]	MIC (Staphylococcus aureus [2]) [mg/L]	MIC (Escherichia coli) [mg/L]	Ratio (Staphylococcus aureus [3])
CCCN(CCC)CC(=O)Nc1cccc2c1CCC(=O)N2.Cl	16	256	8	64	256	64	64	
CCN(CC)CC(=O)Nc1cccc2c1CCC(=O)N2.Cl	32	256	128	32	256	64	8	
CC(C)(C)NCC(=O)Nc1cccc2c1CCC(=O)N2.Cl	32	16	32	256	256	128	32	
Cl.O=C1CCc2c(cccc2NC(=O)CN(Cc2ccccc2)Cc2ccccc2)N1	256	128	128	32	32	128	64	
Cl.O=C1CCc2c(cccc2NC(=O)CN(CCO)CCO)N1	128	4	128	128	128	64	128	
Cl.O=C1CCc2c(cccc2NC(=O)CNCc2ccccc2)N1	32	32	32	64	64	256	64	
Cl.O=C1CCc2c(cccc2NC(=O)CN2CCCCC2)N1	256	128	32	16	128	64	32	8
Cl.O=C1CCc2c(cccc2NC(=O)Cn2ccnc2)N1	16	16	16	32	64	64	64	8
Cl.O=C1CCc2c(cccc2NC(=O)CN2CCOCC2)N1	32	64	128	128	128	32	32	8
Cl.O=C1CCc2c(cccc2NC(=O)Cn2cnc3ccccc32)N1	32	256	16	128	256	32	32	8
Cl.O=C1CCc2c(cccc2NC(=O)CN2CCNCC2)N1	4	32	64	64	16	32	128	8
Cl.O=C1CCc2c(cccc2NC(=O)CN2CCCC2)N1	128	32	32	32	128	32	32	8
CC(C)(C)OC(=O)N1CCN(CC(=O)Nc2cccc3c2CCC(=O)N3)CC1.Cl	32	128	64	32	128	32	16	8
OC(Cn1cncn1)(Cn1cncn1)c1ccc(F)cc1F [FLUCONAZOLE]	8 (≈ 26.1 µM)	4 (≈ 13.1 µM)						
CN[C@@H]1[C@H](O[C@H]2[C@H](O[C@H]3[C@H](O)[C@@H](O)[C@H](N=C(N)N)[C@@H](O)[C@@H]3N=C(N)N)O[C@@H](C)[C@]2(O)C=O)O[C@@H](CO)[C@H](O)[C@H]1O [STREPTOMYCIN]			32 (≈ 55 µM)	32 (≈ 55 µM)	64 (≈ 110 µM)	512 (≈ 880 µM)	16 (≈ 27.5 µM)	
